Experimental data from patent publication US20250320565A1, “DETECTING ANTIBIOTIC AND/OR CHEMICAL USE IN AQUATIC ANIMALS USING EPIGENETIC MEANS” (Evonik Operations GmbH, priority 2022, published 2025).

Test system: marble crayfish
Assay: DNA methylation analysis (Agilent Sure Select Methyl-Seq) of abdominal tissue genomic DNA after antibiotic administration in feed
Type: in vivo
Settings: for number of DNA segments with significant differences between the control and the treated animals: Kruskal Wallis test, p<0.05, CpGs with at least 10 reads, average methylation <0.2 or >0.8 filtered out
Method: Marble crayfish collected from a population at Lake Reilinger, Germany were collected for the experiment and reared from juveniles in the laboratory. A total of 30 adult marbled crayfish were reared in one of 5 treatments with replicates as outlined in Table 1: • 1) Control—no antibiotic treatment • 2) TetraA—Acute tetracycline administration at 10 mg/kg of feed for 7 days • 3) TetraB—Prophylactic tetracycline administration at 5 mg/kg of feed for 42 days • 4) NorA—administered at 10 mg/kg of feed for 7 days • 5) NorB—administered at 5 mg/kg of feed for 28 days
All other rearing variables were kept consistent for all treatment groups. Crayfish were reared in plastic containers with 20° C. tap water, which was replaced every two weeks, exposed to natural day-night light rhythms and daily feeding.
A subset of abdominal tissue genomic DNA samples (Table 1) was utilized for analysis of the Agilent Sure Select Methyl-Seq Assay. Abdominal tissue was extracted from marble crayfish directly after treatment duration, DNA was then extracted as previously described (Tönges et al, 2021).
Library preparation was carried out as described in the Agilent's Sure Select Methyl-Seq Target Enrichment System for Illumina Multiplexed Sequencing Protocol (version E0, April 2018) to specifically analyze 361 genes. These genes were previously characterized as variably methylated genes in the marble crayfish genome, showing differential site-specific methylation patterns in marble crayfish from different wild populations (Gatzmann et al., 2018; Tönges et al., 2021b).
Quality controls were performed, and sample concentrations were measured on a 2,200 TapeStation (Agilent). Multiplexed samples were submitted to the DKFZ High Throughput Sequencing core facility and sequenced on a HiSeq system (Illumina). For data analysis, the 361 sequenced genes were mapped to the bisulfite sequencing datasets of the entire […] genome (Gatzmann et al., 2018; Xi and Li 2009).
To identify antibiotic-specific methylation ratios in genomic DNA from abdominal tissue, the average methylation of each sample within 1 kb of DNA segments was calculated.
The data sets of the 1754 DNA segments were further analyzed and only the CpG positions covered in all samples with at least 10 reads were used. In addition, the CpGs that were either completely methylated or unmethylated (average methylation <0.2 or >0.8) were filtered out.
The DNA segments of the PCA were further analyzed and only the CpG positions that have at least 10 reads in all samples were reused. Furthermore, the CpGs that are completely unmethylated or methylated (average methylation <0.2 or >0.8) were filtered out.

[1] = NorB: 5 mg/kg of feed for 28 days, compared with control and NorA
[2] = control vs the two treatment groups, average methylation

Compound | number of DNA segments with significant differences between the control and the treated animals | average methylation rates of eight CpGs of gene Scaffold_52370: 13110767-13110901 (NorA: 10 mg/kg of feed for 7 days, compared with control) | methylation rates of eight CpGs of gene Scaffold_36323: 7555-7623 [1] | methylation ratios of eight CpGs of gene Scaffold_52370: 13110767-13110901 [1] | PCA separation between treated and untreated samples and between the two treatment groups (PCA of differentially methylated DNA segments) | effect size Cohen's d of all other DNA segments (very small effect) [2] | number of DNA segments showing a small effect (Cohen's d>0.2) [2] | analysis of DMRs, treatment groups vs control (p>0.05)
CCn1cc(C(=O)O)c(=O)c2cc(F)c(N3CCNCC3)cc21 [norfloxacin] | 71 | no significant difference | higher methylation rates in all CpGs | higher methylation ratios of all CpGs | robust separation | < 0.02 | 4 | no significant differences
CN(C)[C@@H]1C(O)=C(C(N)=O)C(=O)[C@@]2(O)C(O)=C3C(=O)c4c(O)cccc4[C@@](C)(O)[C@H]3C[C@@H]12 [tetracycline] | 432 |  |  |  |  |  |  | 
